Values of other authors, collected in patent publication US6548645B1, “Immunoassay for 2-oxo-3-hydroxy LSD” (Microgenetics Corporation, priority 1999, dated 2003).

Assays:
[1] = man; calculated
[2] = doses as low as
[3] = system: antibodies generated by LSD immunogens (LSD analogs derivatized through N-1 or N-6 conjugated to a carrier); details: molar ratio; relative to LSD; antibodies of Salamone et al., Bioconjugate Chem 8:896-905 (1997)

Compound	plasma half-life [1]	oral dose causing central nervous system disturbances (hallucinations, distortions in sensory perception, mood changes) [2]	cross-reactivity [3]
CCN(CC)C(=O)[C@@H]1C=C2c3cccc4[nH]cc(c34)C[C@H]2N(C)C1 [LSD]	about 3 hours	≥ 25 µg	–
CCN(CC)C(=O)C1C=C2c3cccc4c3C(O)(CC2N(C)C1)C(=O)N4 (stereo not drawn) [2PATENT -oxo-3-hydroxy-LSD, 2-oxo-3-hydroxy-LSD]	–	–	30-45%
